This is an account of results in patent publication US12312329B2, “Aminopyrimidine compound used for inhibiting activity of protein kinase” (Shenzhen TargetRx, Inc., priority 2018, dated 2025).

Data set [1] in a line: Pharmacokinetic assay in rats. It counts as in vivo, Sprague-Dawley rats. The note with it: rat; for AUC(0-t) / Cmax / Tmax / half-life / AUC(0-inf) / MRT inf / bioavailability: male, Sprague-Dawley, plasma; for AUC(0-inf): read-out: AUCINF_pred; for MRT inf: read-out: MRTINF_pred; for bioavailability: PO 10 mg/kg vs IV 0.5 mg/kg. As for the experimental part: Six male Sprague-Dawley rats (7-8 weeks old, and weighing about 210 g) were divided into 2 groups, 3 rats in each group. A single dose of compounds (10 mg/kg orally) was administered intravenously or orally to compare their pharmacokinetics.
The rats were fed with standard feed and water. Fasting was started 16 hours before the assay. The drug was dissolved in PEG400 and dimethyl sulfoxide. Blood was collected from the orbit. The time points for blood collection were 0.083 hours, 0.25 hours, 0.5 hours, 1 hour, 2 hours, 4 hours, 6 hours, 8 hours, 12 hours and 24 hours after administration.
The rats were briefly anesthetized after inhaling diethyl ether, and 300 μL of blood sample was collected from the orbit into a test tube containing 30 μL of 1% heparin salt solution. Before use, the test tube was oven dried overnight at 60° C. After the blood sample was collected at the last time point, the rats were anesthetized with diethyl ether and then sacrificed.
Immediately after the blood sample was collected, the test tube was gently inverted at least 5 times to ensure sufficient mixing, and then placed on ice. The blood sample was centrifuged at 5000 rpm at 4° C. for 5 minutes to separate the plasma from the red blood cells. 100 μL of plasma was aspirated into a clean plastic centrifuge tube with a pipette, and the name of the compound and time point were marked. The plasma was stored at −80° C. before analysis. The concentration of the compound of the present disclosure in plasma was determined by LC-MS/MS. The pharmacokinetic parameters were calculated based on the blood drug concentration of each animal at different time points.

The subject of data set [2] is lung cancer cell NCI-H1975 (L858R/T790M). Put plainly: Cytotoxicity assay (MTS cell viability), NCI-H1975. It counts as cell-based. Conditions: Homo sapiens, 72 hours. As for the experimental part:
(§1) In vitro anti-proliferation activity of the compound of the present disclosure on three tumor cell lines cultured in vitro was detected by the MTS method.
(§2) Cell lines: skin cancer cell A431 (purchased from the American Type Culture Collection (ATCC)); lung cancer cell NCI-H1975 (purchased from the American Type Culture Collection (ATCC)) and HCC827 (purchased from the American Type Culture Collection (ATCC)); all were cultured with RPM11640 medium containing 10% fetal bovine serum, 100 U/ml penicillin, and […] streptomycin.
(§3) Reagents and materials: RPMI-1640 (GIBCO, Cat. No A10491-01); fetal bovine serum (GIBCO, Cat. No 10099141): 0.25% trypsin-EDTA (GIBCO, Cat. No 25200); penicillin-streptomycin; liquid (GIBCO, Cat. No 15140-122); DMSO (Sigma, Cat. No D2650); MTS Assay Kit (Promega, Cat. No G3581), 96-well plate (Corning, Cat. No 3365).
(§4) Formulation of compound: The test compound was dissolved in DMSO to prepare a 20 mM stock solution, which was stored at −20° C. The stock solution was then serially diluted 3-fold in DMSO to obtain ten concentrations. After the compound was added, a 4-fold dilution was performed with cell culture medium.
(§5) MTS cell viability assay: cells in logarithmic growth phase was digested with 0.25% trypsin-EDTA, and 150 μl of the cells was inoculated in a 96-well plate at an optimized density. After 24 hours, the compound diluted 4 fold in the medium was added, 50 μl/well (generally ten concentrations were selected: 100, 33.3, 11.1, 3.70, 1.23, 0.412, 0.137, 0.0457, 0.0152, 0.00508 μM). The same volume of 0.5% DMSO was added in wells as a control. After the cells were cultured for another 72 hours, the cell viability was detected by MTS.
(§6) Specific procedure: The cells were adhered. The medium was discarded. A mixture containing 20 μL MTS and 100 μl medium was added to each well. After incubating for 1-4 hours in an incubator, OD490 was detected, with the OD650 value as a reference. A dose-effect curve was made using GraphPad Prism software and IC50 was calculated.

Another data set concerns skin cancer cell A431. Put plainly: Cytotoxicity assay (MTS cell viability), A431. It counts as cell-based. Conditions: Homo sapiens, A-431, 72 hours. As for the experimental part:
as §1, §2, §3, §4, §5, §6

The test system of data set [3] is lung cancer cell HCC827 (Del19). Kind of data set: Cytotoxicity assay (MTS cell viability), HCC827. It counts as cell-based. The note with it: Homo sapiens, 72 hours. On the procedure:
as §1, §2, §3, §4, §5, §6

A further data set addresses WT EGFR (Homo sapiens (Human), UniProt P00533). Kind of data set: Kinase inhibition assay (HTRF Kinase TK), WT EGFR. The data set is classed as biochemical. The text has this: (§7) WT EGFR (Carna, Cat. No 08-115), EGFR[L858R] (Carna, Cat. No 08-502), EGFR[L858R/T790M] (Carna, Cat. No 08-510), ATP (Sigma, Cat. No A7699-1G), DMSO (Sigma, Cat. No D2650), 96-well plate (Corning, Cat. No 3365), 384-well plate (Greiner, Cat. No 784076). HTRF Kinase TK Kit (Cisbio. Cat. No 62TK0PEJ), erlotinib (Selleckchem, Cat. No S7787), EGFR[d746-750] (Life Technologies, Cat. No PV6178), 5× kinase buffer A (Life Technologies, Cat. No PV3186), kinase tracer 199 (Life Technologies, Cat. No PV5830), LanthaScreen® Eu-anti-GST antibody (Life Technologies, Cat. No PV5594).
(§8) Formulation of compound: The test compound was dissolved in DMSO to prepare a 20 mM stock solution. The stock solution was then serially diluted 3-fold in DMSO to obtain ten concentrations. After the compound was added, a 10-fold dilution was performed with buffer.
(§9) WT EGFR and EGFR[L858R/T790M] kinase detection: In 5× kinase buffer A, WT EGFR or EGFR[L858R/T790M] kinase was mixed with different concentrations of compounds prepared by pre-dilution for 10 minutes. Each concentration was tested in duplicate. The corresponding substrate and ATP were added, and reaction was performed at room temperature for 20 minutes (negative and positive controls were provided: the negative control was a blank control, and the positive control was erlotinib). After completion of the reaction, detection reagents (reagents in the HTRF Kinase TK kit) were added. After incubating for 30 minutes at room temperature, enzyme activity in the presence of various concentrations of the compounds of the present disclosure was determined by Evnvision microplate reader, and inhibitory activity of different concentrations of the compounds on enzyme activity was calculated. The inhibitory activity of different concentrations of the compounds on enzyme activity was then fitted by Graphpad 5.0 software according to the four-parameter equation, and the IC50 value was calculated.
Background: In TR-FRET formats the signal depends on donor and acceptor labels being close together.

The next data set concerns the target EGFR[L858R/T790M] (Homo sapiens (Human), UniProt P00533, L858R/T790M). Kind of data set: Kinase inhibition assay (HTRF Kinase TK), EGFR[L858R/T790M]. The data set is classed as biochemical.
Text: as §7, §8, §9

The IC50 is the concentration that inhibits the measured activity by half. In general, AUC(0-t) refers to exposure summed from dosing to a finite time, without extrapolation to infinity. Low readings indicate less exposure, high ones more exposure. As a reminder, the Cmax is the highest concentration seen after dosing. By Tmax is commonly meant the time from dosing to the highest level. For orientation: half-life means how long it takes for the measured level to halve. A high value points to slow decline. As a reminder, the bioavailability is dose-corrected exposure relative to a reference, in per cent. High values mean much systemic uptake, low ones little systemic uptake.

Each structure is given as a SMILES string. Where two headings read alike, the source gives them in different places.

Sequence of EGFR[L858R/T790M] (P00533 25-1210 T790M/L858R): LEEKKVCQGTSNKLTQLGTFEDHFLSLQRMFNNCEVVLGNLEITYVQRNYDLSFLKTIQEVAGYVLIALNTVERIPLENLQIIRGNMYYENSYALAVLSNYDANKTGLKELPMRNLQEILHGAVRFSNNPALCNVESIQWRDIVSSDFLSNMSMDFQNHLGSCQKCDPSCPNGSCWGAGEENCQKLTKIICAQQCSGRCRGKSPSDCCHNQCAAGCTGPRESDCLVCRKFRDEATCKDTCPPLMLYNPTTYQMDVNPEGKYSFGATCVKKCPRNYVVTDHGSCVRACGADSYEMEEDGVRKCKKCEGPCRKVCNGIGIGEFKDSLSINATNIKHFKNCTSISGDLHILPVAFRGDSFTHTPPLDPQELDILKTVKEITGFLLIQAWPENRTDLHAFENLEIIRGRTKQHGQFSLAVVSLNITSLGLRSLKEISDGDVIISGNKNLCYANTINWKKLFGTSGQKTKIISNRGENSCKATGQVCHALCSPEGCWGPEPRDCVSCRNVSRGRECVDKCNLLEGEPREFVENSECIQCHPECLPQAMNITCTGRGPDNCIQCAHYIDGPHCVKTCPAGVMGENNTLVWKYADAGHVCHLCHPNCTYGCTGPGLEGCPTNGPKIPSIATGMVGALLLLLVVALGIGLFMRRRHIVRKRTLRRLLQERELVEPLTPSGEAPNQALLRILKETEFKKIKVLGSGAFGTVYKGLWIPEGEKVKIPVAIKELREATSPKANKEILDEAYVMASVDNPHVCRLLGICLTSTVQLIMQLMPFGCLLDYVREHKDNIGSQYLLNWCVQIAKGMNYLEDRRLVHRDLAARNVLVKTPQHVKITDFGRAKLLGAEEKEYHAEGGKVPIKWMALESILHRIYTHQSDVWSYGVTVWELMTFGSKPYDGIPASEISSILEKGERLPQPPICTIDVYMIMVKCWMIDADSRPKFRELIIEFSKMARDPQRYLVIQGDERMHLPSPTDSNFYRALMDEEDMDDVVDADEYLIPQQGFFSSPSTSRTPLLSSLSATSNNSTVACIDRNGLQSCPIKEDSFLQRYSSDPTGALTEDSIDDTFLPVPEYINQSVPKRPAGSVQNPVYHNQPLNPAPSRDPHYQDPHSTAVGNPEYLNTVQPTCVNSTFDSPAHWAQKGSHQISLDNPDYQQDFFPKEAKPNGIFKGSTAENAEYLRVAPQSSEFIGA
Sequence of WT EGFR (P00533 25-1210): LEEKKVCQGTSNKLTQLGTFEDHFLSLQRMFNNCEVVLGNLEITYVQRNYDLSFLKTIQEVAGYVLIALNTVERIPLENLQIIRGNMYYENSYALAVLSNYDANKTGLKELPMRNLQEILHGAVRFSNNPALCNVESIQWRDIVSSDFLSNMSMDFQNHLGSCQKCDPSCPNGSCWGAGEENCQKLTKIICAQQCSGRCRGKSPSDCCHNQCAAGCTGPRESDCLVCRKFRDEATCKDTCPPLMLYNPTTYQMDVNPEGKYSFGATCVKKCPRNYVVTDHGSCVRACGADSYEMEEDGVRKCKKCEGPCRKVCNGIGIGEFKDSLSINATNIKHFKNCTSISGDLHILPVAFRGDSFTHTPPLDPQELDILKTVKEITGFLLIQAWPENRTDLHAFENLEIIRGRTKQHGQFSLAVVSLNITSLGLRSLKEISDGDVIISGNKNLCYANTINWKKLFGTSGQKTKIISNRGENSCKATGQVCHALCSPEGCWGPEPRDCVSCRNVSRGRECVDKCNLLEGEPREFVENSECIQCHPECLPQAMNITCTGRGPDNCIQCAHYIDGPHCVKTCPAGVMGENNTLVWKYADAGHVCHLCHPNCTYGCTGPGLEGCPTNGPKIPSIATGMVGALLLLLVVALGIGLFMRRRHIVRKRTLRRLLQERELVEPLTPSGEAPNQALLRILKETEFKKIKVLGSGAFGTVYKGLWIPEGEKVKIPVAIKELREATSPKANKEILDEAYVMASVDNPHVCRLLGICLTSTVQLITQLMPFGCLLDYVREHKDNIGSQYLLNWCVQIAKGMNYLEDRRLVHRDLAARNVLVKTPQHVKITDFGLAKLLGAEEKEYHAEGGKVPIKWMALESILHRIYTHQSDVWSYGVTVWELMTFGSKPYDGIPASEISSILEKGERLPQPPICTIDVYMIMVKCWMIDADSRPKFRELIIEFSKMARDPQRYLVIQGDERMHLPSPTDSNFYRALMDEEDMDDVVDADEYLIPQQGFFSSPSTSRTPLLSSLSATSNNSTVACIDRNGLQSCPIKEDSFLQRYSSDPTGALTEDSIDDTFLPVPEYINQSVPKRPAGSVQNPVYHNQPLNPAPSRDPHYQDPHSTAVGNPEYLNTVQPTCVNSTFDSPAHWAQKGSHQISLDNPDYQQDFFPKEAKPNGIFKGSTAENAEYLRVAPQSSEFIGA

Take `C=CC(=O)Nc1cc(Nc2nccc(-n3cc(CN(C)C)c(-c4ccccc4)n3)n2)c(OC)cc1N1CCOCC1` [YH25448, reference compound]: in data set [1] (IV 0.5 mg/kg), the “Cl_pred” value is 17.5 mL/min/kg and the “Vz_pred” value was 5.73 L/kg. Also, in data set [1] (PO 10 mg/kg), the “Cl_pred” value was 94.2 mL/min/kg and the “Vz_pred” value was 61.56 L/kg.
Turning to `C=CC(=O)Nc1cc(Nc2nccc(-n3cc(CN(C)C)c(-c4ccccc4)n3)n2)c(OC(C)C)nc1N1CCOCC1` [Compound T-4, N-(5-((4-(4-((dimethylamino)methyl)-3-phenyl-1H-pyrazol-1-yl)-pyrimidin-2-yl)amino)-6-isopropoxy-2-morpholinopyridin-3-yl)acrylamide], the IC50 in data set [2] came out at 13.2 nM; with skin cancer cell A431, 130 nM; in data set [3], 5.06 nM; against WT EGFR it was 1.98 nM; against EGFR[L858R/T790M], 0.81 nM.
In data set [2], `C=CC(=O)Nc1cc(Nc2ncc(F)c(-n3cc(CN(C)C)c(-c4ccccc4)n3)n2)c(OC)nc1N1CCOCC1` [Compound T-2, N-(5-((4-(4-((dimethylamino)methyl)-3-phenyl-1H-pyrazol-1-yl)-5-fluoropyrimidin-2-yl)amino)-6-methoxy-2-morpholinopyridin-3-yl) acrylamide] showed an IC50 of 9.51 nM. Further, in data set [1] (IV 0.5 mg/kg), the exposure AUC(0-t) worked out at 284 ng·h/mL, the concentration peaked (Cmax) at 268 ng/mL, the Tmax is 0.08 h and the half-life is 2.17 h. In data set [1] (IV 0.5 mg/kg), the AUC(0-inf) came to 289 ng·h/mL, the MRT inf was 1.95 h, the “Cl_pred” value worked out at 29.2 mL/min/kg and the “Vz_pred” value is 5.49 L/kg. In addition, in data set [1] (PO 10 mg/kg), the area under the curve AUC(0-t) was 753 ng·h/mL, the Cmax came to 69.3 ng/mL, the Tmax turned out to be 2.33 h and the half-life is 6.4 h. In addition, in data set [1] (PO 10 mg/kg), the AUC(0-inf) was found to be 840 ng·h/mL, the MRT inf was 7.67 h, the “Cl_pred” value amounted to 200.8 mL/min/kg and the “Vz_pred” value was 111.2 L/kg. In addition, the bioavailability in data set [1] turned out to be 25.1%. In the data set with skin cancer cell A431, this compound yielded an IC50 of 1410 nM. In data set [3], this compound displayed an IC50 of 8.25 nM. Also, on WT EGFR, the IC50 was determined as 3.33 nM. At EGFR[L858R/T790M], this compound registered an IC50 of 0.44 nM.
`C=CC(=O)Nc1cc(Nc2nccc(-n3cc(CN(C)C)c(-c4ccccc4)n3)n2)c(OC)nc1N1CCOCC1` [Compound T-1, N-(5-((4-(4-((dimethylamino)methyl)-3-phenyl-1H-pyrazol-1-yl)pyrimidin-2-yl)amino)-6-methoxy-2-morpholinopyridin-3-yl)acrylamide]: inhibition in data set [2] was half-maximal at 2.43 nM (IC50). In data set [1] (IV 0.5 mg/kg), the AUC(0-t) came to 328 ng·h/mL, the peak level (Cmax) was 246 ng/mL, the Tmax turned out to be 0.08 h and the half-life was 2.8 h. In data set [1] (IV 0.5 mg/kg), the AUC(0-inf) is 341 ng·h/mL, the MRT inf worked out at 2.32 h, the “Cl_pred” value turned out to be 24.5 mL/min/kg and the “Vz_pred” value is on record as 5.94 L/kg. In data set [1] (PO 10 mg/kg), the AUC(0-t) is 1430 ng·h/mL, the highest level (Cmax) was 91.1 ng/mL, the time to peak (Tmax) was found to be 5.33 h and the half-life was 8.69 h. Further, in data set [1] (PO 10 mg/kg), the AUC(0-inf) was determined as 1790 ng·h/mL, the MRT inf amounted to 9.11 h, the “Cl_pred” value is 97.5 mL/min/kg and the “Vz_pred” value is 73.39 L/kg. The bioavailability in data set [1] came out at 21.8%. The compound further had an IC50 in the data set on skin cancer cell A431 of 260 nM. Also, 3.64 nM corresponded to half-maximal inhibition in data set [3] (IC50). At WT EGFR, this compound showed an IC50 of 1.29 nM. Also, the midpoint of inhibition against EGFR[L858R/T790M], the IC50, lay at 0.4 nM.
In the case of `C=CC(=O)Nc1cc(Nc2nccc(-c3cc(CN(C)C)n(-c4ccccc4)n3)n2)c(OC)cc1N1CCOCC1` [Compound T-7, N-(5-((4-(5-((dimethylamino)methyl)-1-phenyl-1H-pyrazol-3-yl)pyrimidin-2-yl)amino)-4-methoxy-2-morpholinophenyl)acrylamide], the IC50 in data set [2] came out at 23.5 nM; with skin cancer cell A431, 226 nM; in data set [3], 4.44 nM; on WT EGFR, 0.55 nM; against EGFR[L858R/T790M], 1.15 nM.
As for `C=CC(=O)Nc1cc(Nc2ncc(C)c(-n3cc(CN(C)C)c(-c4ccccc4)n3)n2)c(OC)nc1N1CCOCC1` [Compound T-3, N-(5-((4-(4-((dimethylamino)methyl)-3-phenyl-H-pyrazol-1-yl)-5-methylpyrimidin-2-yl)amino)-6-methoxy-2-morpholinopyridin-3-yl)acrylamide], the IC50 in data set [2] amounted to 21.9 nM; in the data set with skin cancer cell A431, 342 nM; in data set [3] it was 12.1 nM; on WT EGFR, 6.29 nM; at EGFR[L858R/T790M], 0.6 nM.
